# Experiments:
# Plasma [1] = test: Anticoagulant activity in human plasma assessed as concentration required for increase in clotting time after 2 mins by aPTT assay; assay type: functional
# Plasma [2] = test: Anticoagulant activity in human plasma assessed as concentration required for increase in clotting time after 2 mins by PT assay; assay type: functional
# Plasma [3] = test: Anticoagulant activity in human plasma assessed as concentration required for increase in clotting time after 2 mins by TT assay; assay type: functional
# [4] = target: Coagulation factor IX/VIII (Homo sapiens, UniProt P00451+P00740); test: Inhibition of human intrinsic factor tenase using factor-10 as substrate preincubated for 2 mins followed by substrate addition for 1 min measured every 30 secs for 5 mins by chromogenic substrate S10a-11 based assay; assay type: protein-complex assay
# Sequence of Coagulation factor IX/VIII (P00451 20-759 limits assumed): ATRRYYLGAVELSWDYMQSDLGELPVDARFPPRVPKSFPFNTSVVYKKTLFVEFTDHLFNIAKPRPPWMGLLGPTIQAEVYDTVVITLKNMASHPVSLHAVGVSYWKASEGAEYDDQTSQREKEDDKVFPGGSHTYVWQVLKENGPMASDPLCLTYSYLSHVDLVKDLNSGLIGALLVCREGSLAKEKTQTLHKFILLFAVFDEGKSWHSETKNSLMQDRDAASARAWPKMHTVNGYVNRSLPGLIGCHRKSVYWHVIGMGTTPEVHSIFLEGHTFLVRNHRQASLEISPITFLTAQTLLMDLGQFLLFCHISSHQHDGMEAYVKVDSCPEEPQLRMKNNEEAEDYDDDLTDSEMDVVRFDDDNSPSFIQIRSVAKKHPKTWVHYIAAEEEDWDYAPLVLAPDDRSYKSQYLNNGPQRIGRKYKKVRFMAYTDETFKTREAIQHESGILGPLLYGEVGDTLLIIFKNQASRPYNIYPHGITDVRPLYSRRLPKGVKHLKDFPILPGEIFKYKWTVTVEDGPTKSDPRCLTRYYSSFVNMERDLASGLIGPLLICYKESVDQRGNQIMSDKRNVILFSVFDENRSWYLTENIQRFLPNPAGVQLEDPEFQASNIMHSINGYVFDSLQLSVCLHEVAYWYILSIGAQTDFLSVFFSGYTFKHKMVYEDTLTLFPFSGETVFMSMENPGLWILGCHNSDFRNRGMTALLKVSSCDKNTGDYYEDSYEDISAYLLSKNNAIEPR
# Sequence of Coagulation factor IX/VIII (P00451 1668-2351 limits assumed): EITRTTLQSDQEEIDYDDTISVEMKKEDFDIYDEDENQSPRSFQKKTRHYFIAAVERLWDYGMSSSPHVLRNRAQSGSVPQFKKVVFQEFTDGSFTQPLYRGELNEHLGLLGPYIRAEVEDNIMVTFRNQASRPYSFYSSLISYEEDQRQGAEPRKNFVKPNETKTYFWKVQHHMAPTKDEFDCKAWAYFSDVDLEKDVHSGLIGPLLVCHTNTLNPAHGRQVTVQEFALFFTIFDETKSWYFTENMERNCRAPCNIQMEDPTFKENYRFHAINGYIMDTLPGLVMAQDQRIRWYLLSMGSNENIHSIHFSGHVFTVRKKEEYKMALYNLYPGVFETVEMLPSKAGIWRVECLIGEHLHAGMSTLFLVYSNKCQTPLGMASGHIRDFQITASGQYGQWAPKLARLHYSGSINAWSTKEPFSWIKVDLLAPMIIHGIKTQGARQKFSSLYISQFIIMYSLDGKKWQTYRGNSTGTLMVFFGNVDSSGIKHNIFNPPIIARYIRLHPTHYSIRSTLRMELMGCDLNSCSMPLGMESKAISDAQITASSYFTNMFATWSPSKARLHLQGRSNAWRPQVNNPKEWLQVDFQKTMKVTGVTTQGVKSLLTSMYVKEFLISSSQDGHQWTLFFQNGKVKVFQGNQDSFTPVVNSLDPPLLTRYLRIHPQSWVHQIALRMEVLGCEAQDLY
# Sequence of Coagulation factor IX/VIII (P00740 47-191 limits assumed): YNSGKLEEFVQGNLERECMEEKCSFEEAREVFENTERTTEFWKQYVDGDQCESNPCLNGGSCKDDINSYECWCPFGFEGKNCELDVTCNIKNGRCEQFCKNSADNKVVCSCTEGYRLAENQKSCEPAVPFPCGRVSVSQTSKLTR
# Sequence of Coagulation factor IX/VIII (P00740 227-461 limits assumed): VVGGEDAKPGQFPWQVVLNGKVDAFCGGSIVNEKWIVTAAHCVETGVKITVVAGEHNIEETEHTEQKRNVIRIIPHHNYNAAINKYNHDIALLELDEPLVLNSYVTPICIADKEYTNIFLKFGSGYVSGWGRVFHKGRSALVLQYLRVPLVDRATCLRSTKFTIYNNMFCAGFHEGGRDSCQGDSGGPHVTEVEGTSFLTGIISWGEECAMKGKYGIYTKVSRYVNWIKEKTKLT
# [5] = target: Prothrombin (Homo sapiens) (UniProt P00734); test: Inhibition of antithrombin-dependant factor 2a (unknown origin) activity at 2000 ng/ml preincubated for 2 mins followed by chromogenic substrate CS-01 addition measured every 30 secs for 5 mins relative to control
# [6] = target: Coagulation factor X (Bos taurus) (UniProt P00743); test: Inhibition of antithrombin-dependant bovine factor 10a activity at 2000 ng/ml preincubated for 1 mins followed by chromogenic substrate S10a-11 addition measured every 30 secs for 5 mins relative to control
# Sequence of Coagulation factor X (Bos taurus) (P00743 41-180 limits assumed): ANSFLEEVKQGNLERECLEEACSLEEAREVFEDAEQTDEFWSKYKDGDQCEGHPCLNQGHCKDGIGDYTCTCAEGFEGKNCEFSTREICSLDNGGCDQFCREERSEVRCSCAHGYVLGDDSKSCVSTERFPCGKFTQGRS
# Sequence of Coagulation factor X (Bos taurus) (P00743 234-492 limits assumed): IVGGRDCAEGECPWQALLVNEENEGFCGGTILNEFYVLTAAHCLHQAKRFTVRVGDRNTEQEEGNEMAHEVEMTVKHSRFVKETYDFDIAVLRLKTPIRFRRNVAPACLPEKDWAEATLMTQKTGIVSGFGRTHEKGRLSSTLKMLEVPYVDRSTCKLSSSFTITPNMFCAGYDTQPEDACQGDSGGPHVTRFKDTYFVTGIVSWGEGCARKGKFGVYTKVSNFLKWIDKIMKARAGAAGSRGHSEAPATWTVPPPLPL
IC50 [4],inhibition [5],inhibition [6],Compound,2aPTT (Plasma [1]),2PT (Plasma [2]),2TT (Plasma [3])
2420 nM,< 10%,< 10%,CC(=O)N[C@@H](CO)[C@@H](O[C@@H]1OC(C(=O)[O-])=C[C@H](O[C@@H]2O[C@@H](C)[C@@H](OS(=O)(=O)[O-])[C@@H](O)[C@@H]2OS(=O)(=O)[O-])[C@H]1O)[C@@H](OS(=O)(=O)[O-])[C@H](O)COS(=O)(=O)[O-].[Na+].[Na+].[Na+].[Na+].[Na+],>128 µg/mL,>128 µg/mL,>128 µg/mL
1150 nM,< 10%,< 10%,CC(=O)N[C@H]1[C@H](O[C@@H]([C@H](O[C@@H]2O[C@@H](C)[C@@H](OS(=O)(=O)[O-])[C@@H](O)[C@@H]2OS(=O)(=O)[O-])[C@@H](O)CO)[C@H](O)C(=O)[O-])O[C@H](COS(=O)(=O)[O-])[C@H](OS(=O)(=O)[O-])[C@@H]1O[C@@H]1OC(C(=O)[O-])=C[C@H](O[C@@H]2O[C@@H](C)[C@@H](OS(=O)(=O)[O-])[C@@H](O)[C@@H]2OS(=O)(=O)[O-])[C@H]1O.[Na+].[Na+].[Na+].[Na+].[Na+].[Na+].[Na+].[Na+],106.9 µg/mL,>128 µg/mL,>128 µg/mL
98.7 nM,< 10%,< 10%,CC(=O)N[C@H]1[C@H](O[C@@H]([C@H](O[C@@H]2O[C@@H](C)[C@@H](OS(=O)(=O)[O-])[C@@H](O)[C@@H]2OS(=O)(=O)[O-])[C@@H](O)CO)[C@H](O)C(=O)[O-])O[C@H](COS(=O)(=O)[O-])[C@H](OS(=O)(=O)[O-])[C@@H]1O[C@@H]1O[C@H](C(=O)[O-])[C@@H](O[C@@H]2O[C@H](COS(=O)(=O)[O-])[C@H](OS(=O)(=O)[O-])[C@H](O[C@@H]3OC(C(=O)[O-])=C[C@H](O[C@@H]4O[C@@H](C)[C@@H](OS(=O)(=O)[O-])[C@@H](O)[C@@H]4OS(=O)(=O)[O-])[C@H]3O)[C@H]2NC(C)=O)[C@H](O[C@@H]2O[C@@H](C)[C@@H](OS(=O)(=O)[O-])[C@@H](O)[C@@H]2OS(=O)(=O)[O-])[C@H]1O.[Na+].[Na+].[Na+].[Na+].[Na+].[Na+].[Na+].[Na+].[Na+].[Na+].[Na+].[Na+].[Na+],14.43 µg/mL,>128 µg/mL,>128 µg/mL

# From ChEMBL document CHEMBL4196037, “Precise structures of fucosylated glycosaminoglycan and its oligosaccharides as novel intrinsic factor Xase inhibitors” (Eur J Med Chem, 2018)
